# Measurements from patent publication US20040034037A1, “Heteroaryl compounds useful as inhibitors of GSK-3” (priority 2002, published 2004).
# pKi: −log10 of the molar value.
# Molecular target: T1, GSK-3β (AA 1-420) (Homo sapiens, UniProt P49841)
# T1 construct: GSK-3β (AA 1-420)
# Test: Ki determination for the inhibition of GSK-3 (standard coupled enzyme system)
# Type: biochemical
# Details: 20 μM ATP, 300 μM peptide, 30° C.
# Procedure: Reactions were carried out in a solution containing 100 mM HEPES (pH 7.5), 10 mM MgCl2, 25 mM NaCl, 300 μM NADH, 1 mM DTT and 1.5% DMSO. Final substrate concentrations in the assay were 20 μM ATP (Sigma Chemicals, St Louis, Mo.) and 300 μM peptide (HSSPHQS(PO3H2)EDEEE, American Peptide, Sunnyvale, Calif.). Reactions were carried out at 30° C. and 20 nM GSK-30. Final concentrations of the components of the coupled enzyme system were 2.5 mM phosphoenolpyruvate, 300 μM NADH, 30 μg/ml pyruvate kinase and 10 μg/ml lactate dehydrogenase.
# An assay stock buffer solution was prepared containing all of the reagents listed above with the exception of ATP and the test Compound of interest. The assay stock buffer solution (175 μl) was incubated in a 96 well plate with 5 μl of the test compound of interest at final concentrations spanning 0.002 μM to 30 μM at 30° C. for 10 minutes. […] The reaction was initiated by the addition of 20 μl of ATP (final concentration 20 μM). Rates of reaction were obtained using a Molecular Devices Spectramax plate reader (Sunnyvale, Calif.) over 10 minutes at 30° C. The Ki values were determined from the rate data as a function of inhibitor concentration.
# T1 sequence (P49841 whole entry, the tested form may be a part): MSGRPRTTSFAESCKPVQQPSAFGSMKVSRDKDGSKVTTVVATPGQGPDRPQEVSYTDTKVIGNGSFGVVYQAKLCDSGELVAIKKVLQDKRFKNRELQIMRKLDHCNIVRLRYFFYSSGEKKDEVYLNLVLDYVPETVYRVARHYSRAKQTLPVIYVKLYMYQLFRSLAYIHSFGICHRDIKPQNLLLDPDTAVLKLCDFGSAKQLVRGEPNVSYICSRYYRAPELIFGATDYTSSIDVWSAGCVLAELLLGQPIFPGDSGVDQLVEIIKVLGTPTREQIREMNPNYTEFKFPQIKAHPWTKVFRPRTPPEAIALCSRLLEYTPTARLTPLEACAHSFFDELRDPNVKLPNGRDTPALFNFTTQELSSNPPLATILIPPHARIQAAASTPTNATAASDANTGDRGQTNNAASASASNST
row,pKi,SMILES
1,> 6.00,CC(C)Cn1c(-c2nonc2N)nc2cc(O)ccc21 [Compound I-129]
2,> 6.00,CC(C(N)=O)n1c(-c2nonc2N)nc2ccccc21 (stereo not shown) [Compound I-109]
3,> 6.00,"N#CCOc1cccc2c1nc(-c1nonc1N)n2CC#N [Compound I-58, 1-Cyanomethyl-2-[(4-amino)-1,2,5-oxadiazol-3-yl]-4/7-cyanomethoxy benzimidazole]"
4,> 6.00,"CNc1nccnc1-c1nc2ccccc2n1CC#N [Compound I-90, 3-(1-Cyanomethylbenzimidazol-2-yl)-pyrazin-2-yl methylamine]"
5,> 6.00,Nc1cccnc1-c1nc2ccccc2[nH]1 [Compound I-87]
6,> 6.00,CC(C)Cn1c(-c2nc(Cl)cnc2N)nc2ccccc21 [Compound I-96]

# Continued, compound first:
row,SMILES,pKi
1,"Nc1nonc1-c1nc2ccccc2n1CC(F)(F)F [Compound I-37, 1-(2,2,2-Trifluoro)ethyl-2-[(4-amino)-1,2,5-oxadiazol-3-yl]benzimidazole]",> 6.00
2,"N#CCn1c(-c2nonc2N)nc2c([N+](=O)[O-])cccc21 [Compound I-56, 1-Cyanomethyl-2-[(4-amino)-1,2,5-oxadiazol-3-yl]-4-nitro benzimidazole]",> 6.00
3,"Nc1nonc1-c1nc2ccccc2n1-c1ccccc1 [Compound I-50, 1-Phenyl-2-[(4-amino)-1,2,5-oxadiazol-3-yl]benzimidazole]",> 6.00
4,CC(C#N)n1c(-c2nonc2N)nc2ccccc21 (racemic) [Compound I-51],> 6.00
5,"N#CCn1c(-c2nonc2N)nc2ccccc21 [Compound I-13, [2-(4-Amino-furazan-3-yl)-benzoimidazol-1-yl]-acetonitrile]",> 6.00
6,"CCCn1c(-c2nonc2N)nc2ccccc21 [Compound I-7, 4-(1-Propyl-1H-benzoimidazol-2-yl)-furazan-3-ylamine]",> 6.00
7,"Nc1nonc1-c1nc2ccccc2n1CC1CC1 [Compound I-32, 1-Cyclopropylmethyl-2-[(4-amino)-1,2,5-oxadiazol-3-yl]benzimidazole]",> 6.00
8,"CC(C)CCn1c(-c2nonc2N)nc2ccccc21 [Compound I-54, 1-(3-Methyl)butyl-2-[(4-amino)-1,2,5-oxadiazol-3-yl]benzimidazole]",> 6.00
9,"C=CCn1c(-c2nonc2N)nc2ccccc21 [Compound I-9, 4-(1-Allyl-1H-benzoimidazol-2-yl)-furazan-3-ylamine]",> 6.00
10,"COc1ccc2c(c1)nc(-c1nonc1N)n2CC#N [Compound I-47, 1-Cyanomethyl-2-[(4-amino)-1,2,5-oxadiazol-3-yl]-5/6-methoxy benzimidazole]",> 6.00
11,"CCn1c(-c2nonc2N)nc2ccccc21 [Compound I-55, 4-(1-Ethyl-1H-benzoimidazol-2-yl)-furazan-3-ylamine]",> 6.00
12,"CC(C)n1c(-c2nonc2N)nc2ccccc21 [Compound I-11, 4-(1-Isopropyl-1H-benzoimidazol-2-yl)-furazan-3-ylamine]",> 6.00
13,"Nc1nonc1-c1nc2ccccc2n1CC(=O)Nc1ccc(F)c(F)c1 [Compound I-19, 2-[2-(4-Amino-furazan-3-yl)-benzoimidazol-1-yl]-N-(3,4-difluoro-phenyl)-acetamide]",> 6.00
